16 compounds from patent US12384808B2, “Modulators of TNF-α activity” (Forward Therapeutics, Inc., priority 2022, dated 2025) can be followed below.

pIC50: −log10 of the molar value.

The target of this experiment is TNFα (Homo sapiens, UniProt P01375). Put plainly: TNFα Induced HEK Blue Cellular Assay. As to conditions: HEK Blue TNFα reporter cells, TNFα 100 pg/ml, 24 hrs at 37° C., secreted alkaline phosphatase (QUANTI-Blue) read at 620 nm; read-out: IC50 value. In kind it is cell-based. The procedure, abridged: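 Reporter cells (10,000/well, DMEM + 10% FBS) with compound (final […] to 0.5 nM) stimulated with 100 pg/ml TNFα, 24 h at 37 °C, 5% CO2. Secreted alkaline phosphatase read at 620 nm; IC50 by 4-parameter logistic fit after background correction against stimulated/unstimulated DMSO controls.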
Chain of TNFα (P01375 77-233 limits assumed): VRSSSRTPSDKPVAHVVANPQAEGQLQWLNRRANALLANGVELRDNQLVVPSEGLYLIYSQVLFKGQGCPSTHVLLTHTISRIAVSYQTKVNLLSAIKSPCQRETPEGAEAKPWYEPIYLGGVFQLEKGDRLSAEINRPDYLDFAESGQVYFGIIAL
As for `[2H]C([2H])([2H])N1C(=O)c2cccc(OC(F)F)c2[C@H]2C[C@@H]1c1nc3cc(F)c(-c4ccc(P(C)(C)=O)c(F)c4)cc3n12` [Example 59, (7R,14R)-1-(difluoromethoxy)-11-(4-(dimethylphosphoryl)-3-fluorophenyl)-10-fluoro-6-(methyl-d3)-6,7-dihydro-7,14-methanobenzo[f]benzo[4,5]imidazo[1,2-a][1,4]diazocin-5(14H)-one], the negative logarithm of the IC50 (pIC50) was > 7.00. Under `[2H]C([2H])([2H])N1C(=O)c2cccc(OC(F)F)c2[C@H]2C[C@@H]1c1nc3ccc(-c4cc(F)c(P(C)(C)=O)c(F)c4)cc3n12` [Example 60, (7R,14R)-1-(difluoromethoxy)-11-(4-(dimethylphosphoryl)-3,5-difluorophenyl)-6-(methyl-d3)-6,7-dihydro-7,14-methanobenzo[f]benzo[4,5]imidazo[1,2-a][1,4]diazocin-5(14H)-one] stands > 7.00; under `[2H]C([2H])([2H])N1C(=O)c2cccc(OC(F)F)c2[C@H]2C[C@@H]1c1nc3cc(F)c(-c4ccc(P(C)(C)=O)cc4F)cc3n12` [Example 61, (7R,14R)-1-(difluoromethoxy)-11-(4-(dimethylphosphoryl)-2-fluorophenyl)-10-fluoro-6-(methyl-d3)-6,7-dihydro-7,14-methanobenzo[f]benzo[4,5]imidazo[1,2-a][1,4]diazocin-5(14H)-one], > 7.00. `CN1C(=O)c2cccc(OC(F)F)c2[C@H]2C[C@@H]1c1nc3ccc(-c4c(F)cc(P(C)(C)=O)cc4F)cc3n12` [Example 62, (1R,11R)-18-(difluoromethoxy)-5-[4-(dimethylphosphoryl)-2,6-difluorophenyl]-12-methyl-2,9,12-triazapentacyclo[9.8.1.0^{2,10}.0^{3,8}.0^{14,19}]icosa-3(8),4,6,9,14(19),15,17-heptaen-13-one]: the pIC50 was > 7.00. As for `[2H]C([2H])([2H])N1C(=O)c2cccc(OC(F)F)c2[C@H]2C[C@@H]1c1nc3ccc(-c4c(F)cc(P(C)(C)=O)cc4F)cc3n12` [Example 63, (7R,14R)-1-(difluoromethoxy)-11-(4-(dimethylphosphoryl)-2,6-difluorophenyl)-6-(methyl-d3)-6,7-dihydro-7,14-methanobenzo[f]benzo[4,5]imidazo[1,2-a][1,4]diazocin-5(14H)-one], the pIC50 is > 7.00. `[2H]C([2H])([2H])N1C(=O)c2cccc(OC(F)F)c2[C@H]2C[C@@H]1c1nc3cc(F)c(-c4ccc(P(C)(C)=O)cc4)cc3n12` [Example 64, (7R,14R)-1-(difluoromethoxy)-11-(4-(dimethylphosphoryl)phenyl)-10-fluoro-6-(methyl-d3)-6,7-dihydro-7,14-methanobenzo[f]benzo[4,5]imidazo[1,2-a][1,4]diazocin-5(14H)-one]: the pIC50 is 6.00 to 7.00. As for `[2H]C([2H])([2H])N1C(=O)c2cccc(OC(F)F)c2[C@H]2C[C@@H]1c1nc3ccc(-c4ccc(P(C)(C)=O)cc4)cc3n12` [Example 65, (7R,14R)-1-(difluoromethoxy)-11-(4-(dimethylphosphoryl)phenyl)-6-(methyl-d3)-6,7-dihydro-7,14-methanobenzo[f]benzo[4,5]imidazo[1,2-a][1,4]diazocin-5(14H)-one], the pIC50 was > 7.00. With `CP(C)(=O)c1ccc(-c2cc3c(cc2F)nc2n3[C@@H]3C[C@H]2NC(=O)c2cccc(OC(F)F)c23)cc1F` [Example 66, (7R,14R)-1-(difluoromethoxy)-11-(4-(dimethylphosphoryl)-3-fluorophenyl)-10-fluoro-6,7-dihydro-7,14-methanobenzo[f]benzo[4,5]imidazo[1,2-a][1,4]diazocin-5(14H)-one], the negative logarithm of the IC50 (pIC50) is > 7.00. Consider `[2H]C([2H])([2H])N1C(=O)c2cccc(OC(F)F)c2[C@H]2C[C@@H]1c1nc3ccc(-c4ccc(CP(C)(C)=O)cc4F)cc3n12` [Example 67, (7R,14R)-1-(difluoromethoxy)-11-(4-((dimethylphosphoryl)methyl)-2-fluorophenyl)-6-(methyl-d3)-6,7-dihydro-7,14-methanobenzo[f]benzo[4,5]imidazo[1,2-a][1,4]diazocin-5(14H)-one], for which the pIC50 is > 7.00. As for `[2H]C([2H])([2H])N1C(=O)c2cccc(OC(F)F)c2[C@H]2C[C@@H]1c1nc3ccc(-c4ccc(CP(C)(C)=O)c(F)c4)cc3n12` [Example 68, (7R,14R)-1-(difluoromethoxy)-11-(4-((dimethylphosphoryl)methyl)-3-fluorophenyl)-6-(methyl-d3)-6,7-dihydro-7,14-methanobenzo[f]benzo[4,5]imidazo[1,2-a][1,4]diazocin-5(14H)-one], the figure is > 7.00; as for `[2H]C([2H])([2H])N1C(=O)c2cccc(OC(F)F)c2[C@H]2C[C@@H]1c1nc3ccc(-c4cc(F)c(CP(C)(C)=O)c(F)c4)cc3n12` [Example 69, (7R,14R)-1-(difluoromethoxy)-11-(4-((dimethylphosphoryl)methyl)-3,5-difluorophenyl)-6-(methyl-d3)-6,7-dihydro-7,14-methanobenzo[f]benzo[4,5]imidazo[1,2-a][1,4]diazocin-5(14H)-one], > 7.00; as for `[2H]C([2H])([2H])N1C(=O)c2cccc(OC(F)F)c2[C@H]2C[C@@H]1c1nc3ccc(-c4ccc(CP(C)(C)=O)cc4)cc3n12` [Example 70, (7R,14R)-1-(difluoromethoxy)-11-(4-((dimethylphosphoryl)methyl)phenyl)-6-(methyl-d3)-6,7-dihydro-7,14-methanobenzo[f]benzo[4,5]imidazo[1,2-a][1,4]diazocin-5(14H)-one], > 7.00. Regarding `[2H]C([2H])([2H])N1C(=O)c2cccc(O)c2[C@H]2C[C@@H]1c1nc3ccc(-c4cc(F)c(P(C)(C)=O)cc4F)cc3n12` [Example 71, (7R,14R)-11-(4-(dimethylphosphoryl)-2,5-difluorophenyl)-1-hydroxy-6-(methyl-d3)-6,7-dihydro-7,14-methanobenzo[f]benzo[4,5]imidazo[1,2-a][1,4]diazocin-5(14H)-one], the pIC50 is 4.52 to 5.00.

Turning to `CP(C)(=O)Cc1ccc(-c2ccc3nc4n(c3c2)[C@@H]2C[C@H]4NC(=O)c3cccc(OC(F)F)c32)cc1F` [Example 72, (7R,14R)-1-(difluoromethoxy)-11-(4-((dimethylphosphoryl)methyl)-3-fluorophenyl)-6,7-dihydro-7,14-methanobenzo[f]benzo[4,5]imidazo[1,2-a][1,4]diazocin-5(14H)-one], the pIC50 was > 7.00. As for `CN1C(=O)c2cccc(OC(F)F)c2[C@H]2C[C@@H]1c1nc3ccc(-c4cc(F)c(CP(C)(C)=O)cc4F)cc3n12` [Example 73, (7R,14R)-1-(difluoromethoxy)-11-(4-((dimethylphosphoryl)methyl)-2,5-difluorophenyl)-6-methyl-6,7-dihydro-7,14-methanobenzo[f]benzo[4,5]imidazo[1,2-a][1,4]diazocin-5(14H)-one], the figure is > 7.00; as for `[2H]C([2H])([2H])N1C(=O)c2cccc(OC)c2[C@H]2C[C@@H]1c1nc3ccc(-c4cc(F)c(P(C)(C)=O)cc4F)cc3n12` [Example 74, (7R,14R)-11-(4-(dimethylphosphoryl)-2,5-difluorophenyl)-1-methoxy-6-(methyl-d3)-6,7-dihydro-7,14-methanobenzo[f]benzo[4,5]imidazo[1,2-a][1,4]diazocin-5(14H)-one], 6.00 to 7.00.
